# Assay results: patent US9242973B2, “Chromane compounds” (CoMentis, Inc., priority 2012, dated 2016)
# Counter-ions that a name gives are not always drawn.
# System: Aβ production in SK-N-BE(2) neuroblastoma cells
# Test: Test Example 3: Aβ production inhibition in cell (Aβ40 ELISA, SK-N-BE(2))
# Conditions: Homo sapiens, SKNBE2, 6 h, read-out: Test Example 3 IC50, SK-N-BE(2) cells, 6 hours, Aβ40 ELISA normalized by viability
row,SMILES,IC50 [µM]
1,"NC1=NC2(COC1)c1cc(-c3cncnc3)ccc1OCC21CC1 (stereo not shown) [RP 215, 6′-(pyrimidin-5-yl)-6″H-dispiro[cyclopropane-1,3′-chromene-4′,3″-[1,4]oxazin]-5″-amine]",0.24
2,CCOc1cccc(-c2ccc3c(c2)C2(COC(N)=N2)C2(COC2)C2(CCC2)O3)c1 (stereo not shown) [RP 131],3.2
3,NC1=NC2(CO1)c1cc(-c3cncc(C(F)F)c3)ccc1OC1(CCC1)C21COC1 (stereo not shown) [RP 118],0.99
4,"NC1=NC2(CO1)c1cc(Nc3ncccc3Cl)ccc1OCC21COC1 (stereo not shown) [RP 43, 6′-(3-chloropyridin-2-yl)aminodispiro[1,3-oxazole-4,4′-chromene-3′,3″-oxetane]-2-amine]",1.4
5,NC1=NC2(CO1)c1cc(-c3cncnc3)ccc1OC1(CCC1)C21COC1 (stereo not shown) [RP 5],0.59
6,"CC1(C)Oc2ccc(Br)cc2C2(COC(N)=N2)C12COC2 (stereo not shown) [RP 6, 6′-bromo-2′,2′-dimethyldispiro[1,3-oxazole-4,4′-chromene-3′,3″-oxetan]-2-amine]",3.9
7,CC1(C)Oc2ccc(NC(=O)c3ccc(F)cn3)cc2[C@@]2(COC(N)=N2)C12CC2 [Example 222],0.00062
8,NC1=NC2(CO1)c1cc(-c3cncnc3)ccc1OC(CC1CC1)C21COC1 (stereo not shown) [RP 204],0.24
9,CCC(CC)Cc1ccc2c(c1)C1(COC(N)=N1)C1(COC1)C1(CCC1)O2 (stereo not shown) [RP 47],1.4
10,CC1(C)Oc2ccc(-c3cc(F)cc(F)c3)cc2C2(COC(N)=N2)C12COC2 (stereo not shown) [RP 147],0.17
11,NC1=NC2(CO1)c1cc(C3=CCCCC3)ccc1OC1(CCC1)C21COC1 (stereo not shown) [RP 135],1.8
12,CC1(C)Oc2ccc(-c3cccc(C(F)(F)F)c3)cc2C2(COC(N)=N2)C12COC2 (stereo not shown) [RP 141],1.3
13,CC#Cc1cncc(-c2ccc3c(c2)C2(COC(N)=N2)C2(COC2)C(CC)O3)c1 (stereo not shown) [RP 86],0.058
14,"NC1=NC2(CO1)c1cc(-c3cnc4[nH]ccc4c3)ccc1OCC21CC1 (stereo not shown) [RP 61, 6′-(1H-pyrrolo[2,3-b]pyridin-5-yl)dispiro[cyclopropane-1,3′-chromene-4′,4″-[1,3]oxazol]-2″-amine]",0.35
15,NC1=NC2(CO1)c1cc(-c3cc(F)ccc3F)ccc1OC1(CCC1)C21COC1 (stereo not shown) [RP 130],1.7
16,Cc1cccc(-c2ccc3c(c2)C2(COC(N)=N2)C2(COC2)C2(CCC2)O3)c1 (stereo not shown) [RP 127],1.8
17,"CC(C)Cc1ccc2c(c1)C1(COC(N)=N1)C1(COC1)C1(CCC1)O2 (stereo not shown) [RP 46, 6′-isobutyltrispiro[cyclobutane-1,2′-chromene-4′,4″-[1,3]oxazole-3′,3′″-oxetan]-2″-amine]",1.4
18,"CC1(C)Oc2ccc(NC(=O)c3cnc(C(F)F)cn3)cc2[C@@]2(COC(N)=N2)C12CC2 [Example 224, N-[(4′R)-2″-amino-2′,2′-dimethyldispiro[cyclopropane-1,3′-chromene-4′,4″-[1,3]oxazol]-6′-yl]-5-(difluoromethyl)pyrazine-2-carboxamide]",0.00063
19,NC1=NC2(CO1)c1cc(-c3cncnc3)c(F)cc1OCC21CC1 (stereo not shown) [RP 102],0.24
20,CC1(C)Oc2ccc(-c3cc(F)cnc3Cl)cc2C2(COC(N)=N2)C12COC2 (stereo not shown) [RP 153],0.13
21,"NC1=NC2(CO1)c1cc(NC(=O)c3ccc(F)cn3)ccc1OCC21CC1 (stereo not shown) [RP 31, N-(2″-aminodispiro[cyclopropane-1,3′-chromene-4′,4″-[1,3]oxazol]-6′-yl)-5-fluoropyridine-2-carboxamide]",0.061
22,COc1cccc(-c2ccc3c(c2)C2(COC(N)=N2)C2(COC2)C(C)(C)O3)c1 (stereo not shown) [RP 142],0.15
23,CC1(C)Oc2ccc(-c3cc(F)ccn3)cc2C2(COC(N)=N2)C12COC2 (stereo not shown) [RP 149],1.1
24,COc1cccnc1Nc1ccc2c(c1)C1(COC(N)=N1)C1(COC1)C1(CCC1)O2 (stereo not shown) [RP 45],0.057

row,SMILES,IC50 [µM]
1,CC#Cc1cncc(-c2ccc3c(c2)C2(COC(N)=N2)C2(COC2)C(CC2CC2)O3)c1 (stereo not shown) [RP 205],0.022
2,CC#Cc1cncc(-c2ccc3c(c2)C2(COC(N)=N2)C2(COC2)C2(CCC2)O3)c1 (stereo not shown) [RP 109],0.048
3,NC1=NC2(CO1)c1cc(-c3cncnc3)ccc1OC1(CCCC1)C21COC1 (stereo not shown) [RP 85],0.077
4,CCOc1cncc(-c2ccc3c(c2)C2(COC(N)=N2)C2(CC2)CO3)c1 (stereo not shown) [RP 106],0.16
5,CCc1cncc(-c2ccc3c(c2)C2(COC(N)=N2)C2(CC2)CO3)c1 (stereo not shown) [RP 63],3.3
6,CC(C)CC1Oc2ccc(-c3cncnc3)cc2C2(COC(N)=N2)C12COC2 (stereo not shown) [RP 93],0.37
7,N#Cc1cccc(-c2ccc3c(c2)C2(COC(N)=N2)C2(COC2)C2(CCC2)O3)c1 (stereo not shown) [RP 128],1.5
8,NC1=NC2(c3cc(-c4cncnc4)ccc3OCC23CC3)c2cccc(F)c21 (stereo not shown) [RP 199],0.24
9,"CC1(C)Oc2ccc(-c3cncnc3)cc2C2(CSC(N)=N2)C12COC2 (stereo not shown) [RP 54, 2′,2′-dimethyl-6′-(pyrimidin-5-yl)dispiro[oxetane-3,3′-chromene-4′,4″-[1,3]thiazol]-2″-amine hydrochloride]",0.079
10,Cc1cc(F)cc(-c2ccc3c(c2)C2(COC(N)=N2)C2(COC2)C(C)(C)O3)c1 (stereo not shown) [RP 148],0.48
11,"COc1ccnc(-c2ccc3c(c2)C2(COC(N)=N2)C2(COC2)C(C)(C)O3)c1 (stereo not shown) [RP 65, 6′-(4-methoxypyridin-2-yl)-2′,2′-dimethyldispiro[1,3-oxazole-4,4′-chromene-3′,3″-oxetan]-2-amine]",0.049
12,CCC1Oc2ccc(-c3cncnc3)cc2C2(COC(N)=N2)C12COC2 (stereo not shown) [RP 84],0.41
13,NC1=NC2(CO1)c1cc(-c3cncnc3)ccc1OCC21CCCO1 (stereo not shown) [RP 97],2.6
14,CC1(C)Oc2ccc(-c3ccc4nonc4c3)cc2C2(COC(N)=N2)C12COC2 (stereo not shown) [RP 178],0.81
15,CC#Cc1cncc(-c2ccc3c(c2)C2(COC(N)=N2)C2(COC2)C(CCC)O3)c1 (stereo not shown) [RP 92],0.037
16,NC1=NC2(CO1)c1cc(-c3cncnc3)ccc1OC(C1CC1)C21COC1 (stereo not shown) [RP 88],1.4
17,NC1=NC2(CO1)c1cc(Br)ccc1OC(CC1CC1)C21COC1 (stereo not shown) [RP 16b],4.8
18,"CC1(C)Oc2ccc(-c3ccc4[nH]ccc4c3)cc2C2(COC(N)=N2)C12COC2 (stereo not shown) [RP 174, 6′-(1H-indol-5-yl)-2′,2′-dimethyldispiro[1,3-oxazole-4,4′-chromene-3′,3″-oxetan]-2-amine]",3.4
19,CC#Cc1cncc(-c2cc3c(cc2F)OCC2(CC2)C32COC(N)=N2)c1 (stereo not shown) [RP 112],0.66
20,CC#Cc1ccnc(-c2ccc3c(c2)C2(COC(N)=N2)C2(COC2)CO3)c1 (stereo not shown) [RP 56],0.74
21,"NC1=NC2(CS1)c1cc(Br)ccc1OCC21COC1 (stereo not shown) [RP 41, 6′-bromodispiro[oxetane-3,3′-chromene-4′,4″-[1,3]thiazol]-2″-amine]",> 30
22,CC1(C)Oc2ccc(-c3cccc4[nH]ncc34)cc2C2(COC(N)=N2)C12COC2 (stereo not shown) [RP 176],0.85
23,CC1(C)Oc2ccc(-c3cccnc3Cl)cc2C2(COC(N)=N2)C12COC2 (stereo not shown) [RP 156],0.18
24,CC1(C)Oc2ccc(-c3cccc4cnccc34)cc2C2(COC(N)=N2)C12COC2 (stereo not shown) [RP 180],0.49

row,SMILES,IC50 [µM]
1,NC1=NC2(CO1)c1cc(Nc3ncccc3Cl)ccc1OC1(CCC1)C21COC1 (stereo not shown) [RP 44],0.098
2,NC1=NC2(CO1)c1cc(-c3cc(Cl)cnc3F)ccc1OC1(CCC1)C21COC1 (stereo not shown) [RP 73],0.07
3,COC/C=C/c1ccc2c(c1)C1(COC(N)=N1)C1(COC1)C(C)(C)O2 (stereo not shown) [RP 181],0.82
4,NC1=NC2(CO1)c1cc(-c3cccc(F)c3)ccc1OC1(CCC1)C21COC1 (stereo not shown) [RP 125],0.58
5,CC1(C)Oc2ccc(-c3ccc4[nH]ncc4c3)cc2C2(COC(N)=N2)C12COC2 (stereo not shown) [RP 177],1.5
6,CC1(C)Oc2ccc(-c3cncc(Cl)n3)cc2C2(COC(N)=N2)C12COC2 (stereo not shown) [RP 150],0.45
7,COc1cnc(C(=O)Nc2ccc3c(c2)C2(COC(N)=N2)C2(CC2)CO3)cn1 (stereo not shown) [RP 193],0.081
8,COc1cccc(-c2ccc3c(c2)C2(COC(N)=N2)C2(COC2)C2(CCC2)O3)c1F (stereo not shown) [RP 137],0.83
9,NC1=NC2(CO1)c1cc(-c3cncnc3)ccc1OCC21CC(F)(F)C1 (stereo not shown) [RP 208],6.1
10,"NC1=NC2(CO1)c1cc(-c3cncc(C#CC4CC4)c3)ccc1OC1(CCC1)C21COC1 (stereo not shown) [RP 48, 6′-[5-(cyclopropylethynyl)pyridin-3-yl]trispiro[cyclobutane-1,2′chromene-4′,4″-[1,3]oxazole-3′,3′″-oxetan]-2″-amine]",0.69
11,"N#Cc1ncccc1-c1ccc2c(c1)C1(COC(N)=N1)C1(COC1)C1(CCC1)O2 (stereo not shown) [RP 115, 3-(2″-aminotrispiro[cyclobutane-1,2′-chromene-4′,4″-[1,3]oxazole-3′,3′″-oxetan]-6′-yl)pyridine-2-carbonitrile]",1.1
12,CC#Cc1cncc(-c2ccc3c(c2)C2(COC(N)=N2)C2(CCC2)CO3)c1 (stereo not shown) [RP 113],0.47
13,NC1=NC2(CO1)c1cc(-c3cncc(OCC(F)(F)C(F)F)c3)ccc1OCC21CC1 (stereo not shown) [RP 64],2.3
14,NC1=NC2(CO1)c1cc(-c3cccnc3F)ccc1OCC21CC1 (stereo not shown) [RP 103],0.45
15,CC1(C)Oc2ccc(-c3cccc(Cl)c3)cc2C2(COC(N)=N2)C12COC2 (stereo not shown) [RP 139],0.14
16,CC1(C)Oc2ccc(-c3cccc(C4CC4)c3)cc2C2(COC(N)=N2)C12COC2 (stereo not shown) [RP 140],0.41
17,NC1=NC2(CO1)c1cc(-c3cccnc3)ccc1OC1(CCC1)C21COC1 (stereo not shown) [RP 209],0.83
18,"COc1cnc(C(=O)Nc2ccc3c(c2)[C@@]2(COC(N)=N2)C2(CC2)C(C)(C)O3)cn1 [Example 223, N-[(4′R)-2″-amino-2′,2′-dimethyldispiro[cyclopropane-1,3′-chromene-4′,4″-[1,3]oxazol]-6′-yl]-5-me thoxypyrazine-2-carboxamide]",0.0031
19,CNC(=O)c1cc(F)cc(-c2ccc3c(c2)C2(COC(N)=N2)C2(COC2)C(C)(C)O3)c1 (stereo not shown) [RP 171],3.1
20,NC1=NC2(CO1)c1cc(-c3cncc(OCC(F)(F)F)c3)ccc1OCC21CC1 (stereo not shown) [RP 58],0.18
21,CC#Cc1cncc(-c2ccc3c(c2)C2(COC(N)=N2)C2(COC2)C(CCC(F)(F)F)O3)c1 (stereo not shown) [RP 96],0.022
22,CC#Cc1cncc(-c2ccc3c(c2)C2(COC(N)=N2)C2(COC2)CO3)n1 (stereo not shown) [RP 22],2.9
